Patent EP2457593A1, “Cyclic RGD peptides of amino acids based on thiazoles or oxazoles as selective antagonists of the alpha-v beta-3 integrin” (Lykera Biomed S.A., priority 2010, dated 2012)

Assays:
HUVEC (αvβ3) = HUVEC (αvβ3) (Homo sapiens, UniProt P05106+P06756); experiment: Cell adhesion inhibition, fibrinogen (FB) as ligand, HUVEC; assay type: cell-based; conditions: from adhesion of the HUVEC and DAOY cells to FB
DAOY (αvβ3 /αvβ5) = experiment: Cell adhesion inhibition, vitronectin (VN) as ligand, DAOY; assay type: cell-based, human; conditions: coating 0.5 µg/ml, read-out: Adhesion inhibition - EC-50
Experimental: (§1) Biological experiments. Cells were grown in DMEM High Glucose (GIBCO, Ref: 31966), supplemented with 10% FCS (GIBCO, 10106-169) at 37°C and 5% CO2. Cells were expanded when they reached 90% confluence. Non-tissue culture treated ELISA plates were coated at 4°C with the appropriate concentration of the ligand (depending on the cell line). The coating solution was discarded and the wells were blocked with blocking solution (1.5% BSA; 60 minutes at 37°C). The blocking solution was discarded by flicking and serial dilutions of the compounds were plated in duplicates. Immediately, harvested cells were plated at a given concentration (20000-25000 /well for HUVEC and DAOY and 50000 for HT-29) to the same plate. Plates were incubated for 60-90 min at 37°C to allow cell adhesion and spreading on the ligands. Plates were washed three times with PBS and 100 µl/well of Hexosaminidase Substrate solution was added. Plates were incubated at 37°C during 3 hours and then stop solution was added. Adsorption was read at OD 405nm.
(§2) Each plate contains positive and negative controls and peptides were tested as duplicates. Each assay has been repeated at least twice and the adhesion inhibition EC50 was calculated, when possible, using the Prism-4 software based on the sigmoidal dose-response (variable slope) equation.
(§3) The different RDG derivates based on thiazole-amino acid structures were tested for their biological activity such as inhibition of cell adhesion using three different cell systems and three integrin ligands for each cell line (vitronectin (VN), fibrinogen (FB) and fibronectin (FN) and collagen (COL)). The cell lines used for the study were: DAOY human […] cells and HUVEC human umbilical vein endothelial cells as primary cell culture, which overexpresses in both members, αvβ3 and αvβ5, of the αv-integrin family, and HT29 human colon adenocarcinoma, which overexpresses in both members, αvβ5 and αvβ6, of the αv-integrin family. […]

HT-29 (αvβ5) = experiment: Cell adhesion inhibition, vitronectin (VN) as ligand, HT-29; assay type: cell-based, human; conditions: for blocking activity against αvβ5: HT29-VN cell system; for EC50: VN ligand, HT-29, coating 4.0 µg/ml, read-out: Adhesion inhibition - EC-50
Experimental: as §1, §2
(§4) The different RDG derivates based on thiazole-amino acid structures were tested for their biological activity such as inhibition of cell adhesion using three different cell systems and three integrin ligands for each cell line (vitronectin (VN), fibrinogen (FB) and fibronectin (FN) and collagen (COL)). The cell lines used for the study were: DAOY human […] cells and HUVEC human umbilical vein endothelial cells as primary cell culture, which overexpresses in both members, αvβ3 and αvβ5, of the αv-integrin family, and HT29 human colon adenocarcinoma, which overexpresses in both members, αvβ5 and αvβ6, of the αv-integrin family.
(§5) In the experiments using VN as integrin ligand, both HUVEC and DAOY cells use αvβ3 and αvβ5 to adhere to VN; while HT29 cells use only αvβ5 to adhere to VN. In contrast, in the experiments using FB as integrin ligands, both HUVEC and DAOY cells use αvβ3 to adhere to FB, and the experiments using FN and COL were to control that the compounds could no inhibit the independent cell adhesion.

HUVEC (αvβ3/αvβ5) = experiment: Cell adhesion inhibition, vitronectin (VN) as ligand, HUVEC; assay type: cell-based, human; conditions: coating 0.75 µg/ml, read-out: Adhesion inhibition - EC-50
Experimental: as §1, §2, §4, §5

DAOY (αvβ3) = experiment: Cell adhesion inhibition, fibrinogen (FB) as ligand, DAOY; assay type: cell-based, human; conditions: coating 5.0 µg/ml, read-out: Adhesion inhibition - EC-50
Experimental: as §1, §2, §3

HUVEC cell line [1] = experiment: Inhibition of cell adhesion, first series of experiments, HUVEC cell line (ligand not specified); assay type: cell-based, human; conditions: for biological activity (inhibition of cell adhesion), in words: HUVEC cell line, first series of experiments
Experimental: as §1, §2, §4
In the first series of experiments compounds 1-5 were tested using HUVEC cell line showing that only compounds 4 and 5 were active.

HUVEC cell line [2] = experiment: Cell adhesion inhibition, collagen (COL) as ligand (αv-integrin independent control), HUVEC; assay type: cell-based, human
Experimental: (§6) Figure 1. […] A) Using vitronectin (VN) as ligand. B) Using fibrinogen (FB) as ligand. Figure 2. […] Figure 3. […] A) Using fibronectin (FN) as ligand. B) Using collagen (COL) as ligand.
as §1, with “Plates were washed three times with PBS and 100 µl/well of Hexosaminidase Substrate solution was added. Plates were incubated at 37°C during 3 hours and then stop solution was added.” left out
(§7) Each plate contains positive and negative controls and peptides were tested as duplicates. Each assay has been repeated at least twice and the adhesion inhibition EC50 was calculated, when possible, using the Prism-4 software based on the sigmoidal dose-response (variable slope) equation. […]

HUVEC cell line [3] = experiment: Cell adhesion inhibition, fibronectin (FN) as ligand (αv-integrin independent control), HUVEC; assay type: cell-based, human
Experimental: as §6
as §1, with “Plates were washed three times with PBS and 100 µl/well of Hexosaminidase Substrate solution was added. Plates were incubated at 37°C during 3 hours and then stop solution was added.” left out
as §7

Sequence of HUVEC (αvβ3) (P06756 31-1048): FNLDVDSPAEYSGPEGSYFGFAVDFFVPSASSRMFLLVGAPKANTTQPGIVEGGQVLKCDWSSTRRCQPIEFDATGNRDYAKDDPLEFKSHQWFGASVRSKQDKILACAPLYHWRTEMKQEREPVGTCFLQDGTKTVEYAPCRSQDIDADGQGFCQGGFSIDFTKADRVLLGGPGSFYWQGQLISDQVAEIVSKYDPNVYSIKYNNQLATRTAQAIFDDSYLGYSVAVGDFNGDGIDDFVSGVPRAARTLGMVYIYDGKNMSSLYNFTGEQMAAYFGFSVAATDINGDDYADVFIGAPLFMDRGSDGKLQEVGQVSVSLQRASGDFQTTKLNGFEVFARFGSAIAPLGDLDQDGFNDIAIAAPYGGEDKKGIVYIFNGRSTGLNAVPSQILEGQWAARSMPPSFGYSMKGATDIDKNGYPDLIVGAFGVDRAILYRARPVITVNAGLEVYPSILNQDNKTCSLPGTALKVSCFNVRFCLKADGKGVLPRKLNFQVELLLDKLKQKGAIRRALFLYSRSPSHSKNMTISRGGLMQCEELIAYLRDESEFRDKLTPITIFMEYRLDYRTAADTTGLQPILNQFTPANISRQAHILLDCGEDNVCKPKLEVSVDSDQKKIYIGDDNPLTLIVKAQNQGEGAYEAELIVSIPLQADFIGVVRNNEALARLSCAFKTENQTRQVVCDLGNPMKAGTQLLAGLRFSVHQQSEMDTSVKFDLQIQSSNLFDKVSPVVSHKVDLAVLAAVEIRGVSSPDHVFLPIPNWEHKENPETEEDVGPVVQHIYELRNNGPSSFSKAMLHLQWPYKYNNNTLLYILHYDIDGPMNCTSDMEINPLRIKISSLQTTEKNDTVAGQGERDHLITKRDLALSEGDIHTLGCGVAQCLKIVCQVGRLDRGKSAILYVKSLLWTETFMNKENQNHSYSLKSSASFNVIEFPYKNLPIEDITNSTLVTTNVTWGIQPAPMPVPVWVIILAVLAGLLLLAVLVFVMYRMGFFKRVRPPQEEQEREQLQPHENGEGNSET
Sequence of HUVEC (αvβ3) (P05106 27-788): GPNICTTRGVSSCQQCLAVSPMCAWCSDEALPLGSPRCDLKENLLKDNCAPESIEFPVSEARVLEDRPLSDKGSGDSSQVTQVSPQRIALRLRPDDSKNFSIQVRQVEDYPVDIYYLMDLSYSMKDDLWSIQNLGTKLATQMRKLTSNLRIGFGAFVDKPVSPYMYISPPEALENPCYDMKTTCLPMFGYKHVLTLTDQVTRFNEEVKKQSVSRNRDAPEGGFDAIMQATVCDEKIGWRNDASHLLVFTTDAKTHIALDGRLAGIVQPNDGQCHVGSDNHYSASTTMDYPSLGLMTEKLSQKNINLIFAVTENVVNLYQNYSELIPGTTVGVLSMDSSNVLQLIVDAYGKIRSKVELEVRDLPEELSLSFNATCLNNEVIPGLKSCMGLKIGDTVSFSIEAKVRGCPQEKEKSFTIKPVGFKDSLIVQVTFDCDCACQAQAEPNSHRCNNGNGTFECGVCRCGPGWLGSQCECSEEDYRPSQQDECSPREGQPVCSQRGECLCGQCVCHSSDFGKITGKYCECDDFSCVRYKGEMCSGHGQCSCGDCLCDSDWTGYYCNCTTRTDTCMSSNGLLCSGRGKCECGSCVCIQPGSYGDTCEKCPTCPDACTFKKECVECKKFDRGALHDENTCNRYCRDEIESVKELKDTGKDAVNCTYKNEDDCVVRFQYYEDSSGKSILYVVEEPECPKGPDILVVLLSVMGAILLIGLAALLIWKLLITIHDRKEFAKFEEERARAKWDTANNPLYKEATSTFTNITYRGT

Which results are given for N=C(N)NCCC[C@@H]1NC(=O)c2csc(n2)-c2csc(n2)CNC(=O)[C@H](CC(=O)O)NC(=O)CNC1=O [Compound 4, Cyclo-[Arg-Gly-Asp-Thz2X-]]?
selectivity for the αvβ3 integrin, in words (HUVEC (αvβ3)): selective antagonists of the αvβ3 integrin; EC50 (DAOY (αvβ3 /αvβ5)): 5.71 µM; blocking activity against αvβ5 (HT-29 (αvβ5)): no blocking activity; EC50 (HT-29 (αvβ5)): 53.2 µM; EC50 (HUVEC (αvβ3/αvβ5)): 7.46 µM; EC50 (DAOY (αvβ3)): 0.082 µM; biological activity (inhibition of cell adhesion), in words (HUVEC cell line [1]): active

How did the “selectivity for the αvβ3 integrin, in words” value (HUVEC (αvβ3)) turn out when N=C(N)NCCC[C@@H]1NC(=O)c2csc(n2)-c2csc(n2)-c2csc(n2)CNC(=O)[C@H](CC(=O)O)NC(=O)CNC1=O [Compound 5, Cyclo-[Arg-Gly-Asp-Thz3X-]] was run?
The value was “selective antagonists of the αvβ3 integrin”.

And the EC50 (DAOY (αvβ3 /αvβ5))?
Its EC50 is 6.8 µM.

And the “blocking activity against αvβ5” value (HT-29 (αvβ5))?
The value was “no blocking activity”.

And the EC50 (HT-29 (αvβ5))?
The EC50 was 59.1 µM.

What about the EC50 (HUVEC (αvβ3/αvβ5)) of the same compound?
The EC50 was 63.8 µM.

And the EC50 (DAOY (αvβ3))?
The EC50 was 1.86 µM.

And the “biological activity (inhibition of cell adhesion), in words” value (HUVEC cell line [1])?
Its value is “active”.

N=C(N)NCCC[C@@H]1NC(=O)c2csc(n2)CNC(=O)[C@H](CC(=O)O)NC(=O)CNC1=O [Compound 3, Cyclo-[Arg-Gly-Asp-Thz1X-]] was tested. Which EC50 (HUVEC (αvβ3/αvβ5)) did it give?
Its EC50 is 31.1 µM.

And the “activity in all cell systems used in the study, in words” value (HUVEC cell line [1]; all cell systems used, compound 3 has values for HUVEC only)?
The value was “inactive”.

Which results are given for CC(C)[C@H]1C(=O)N[C@@H](CCCNC(=N)N)C(=O)NCC(=O)N[C@@H](CC(=O)O)C(=O)N[C@H](Cc2ccccc2)C(=O)N1C [Cilengitide, reference compound]?
EC50 (DAOY (αvβ3 /αvβ5)): 0.068 µM; EC50 (HT-29 (αvβ5)): 2.24 µM; inhibit cell adhesion to αv-integrin independent cell adhesion (COL coating) (HUVEC cell line [2]): none of the compounds, including the reference one (Cilengitide) would inhibit cell adhesion; EC50 (HUVEC (αvβ3/αvβ5)): 0.56 µM; EC50 (DAOY (αvβ3)): 0.059 µM; inhibit cell adhesion to αv-integrin independent cell adhesion (FN coating) (HUVEC cell line [3]): none of the compounds, including the reference one (Cilengitide) would inhibit cell adhesion
